Assay results from PMC11440508, “Dually Labeled Neurotensin NTS1R Ligands for Probing Radiochemical and Fluorescence-Based Binding Assays” (Journal of Medicinal Chemistry, 2024).
Entries after “also recorded” stand apart in the source; their conditions may differ.

What was measured:
[1] = Chemical stability in PBS (pH 7.4); type: physicochemical; details: PBS pH 7.4, room temperature, up to 48 h, RP-HPLC
Procedure: The chemical stability of peptides 13 and 18 was investigated in PBS (adjusted to pH 7.4) at 22 °C in the dark. The incubation was started by the addition of 15 μL of a 1 mM stock solution (solvent: DMSO) to 135 μL of PBS to yield a concentration of 100 μM. After periods of 0, 6, 24, and 48 h, an aliquot (25 μL) was removed and added to 25 μL of acetonitrile/0.04% aqueous TFA 1:9 v/v to obtain a peptide solution with a concentration of 50 μM. 20 μL of this solution were subjected to analytical RP-HPLC analysis using the same system and conditions as described under Analytical HPLC with the following gradient: 0–14 min: acetonitrile/0.04% aqueous TFA 10:90–30:70, 14–15 min: 30:70–95:5, 15–20 min: 95:5 (isocratic). A 1:1 mixture of PBS and acetonitrile/0.04% aqueous TFA 1:9 v/v (20 μL) was analyzed to obtain the blank chromatogram.

NTS1R [2] = molecular target: T1, NTS1R (Homo sapiens, UniProt P30989); assay: High-content imaging (HCI) association and dissociation kinetics, adherent CHO-hNTS1R cells; type: binding; details: for koff: 23 °C, read-out: koff [min^–1] (converted); for kon: calculated from kobs, koff and ligand concentration, read-out: kon [min^–1 nM^–1] (converted)
T1 sequence (P30989 whole entry): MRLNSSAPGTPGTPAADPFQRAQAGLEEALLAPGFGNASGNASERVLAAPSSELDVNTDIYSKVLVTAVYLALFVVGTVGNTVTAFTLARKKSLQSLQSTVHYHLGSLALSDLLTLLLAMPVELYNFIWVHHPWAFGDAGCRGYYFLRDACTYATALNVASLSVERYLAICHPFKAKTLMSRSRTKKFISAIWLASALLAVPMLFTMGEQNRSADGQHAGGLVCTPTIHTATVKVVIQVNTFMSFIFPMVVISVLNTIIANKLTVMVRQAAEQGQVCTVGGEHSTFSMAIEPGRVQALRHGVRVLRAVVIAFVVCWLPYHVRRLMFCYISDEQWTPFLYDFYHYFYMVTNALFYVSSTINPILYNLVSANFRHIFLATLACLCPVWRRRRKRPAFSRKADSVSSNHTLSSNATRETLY
Procedure: (§1) CHO-hNTS1R or HT-29 cells were seeded one day prior to the experiment into the inner 60 wells of a black clear-bottom 96-well plate (Greiner 655090, Greiner Bio-One) at a concentration of 25,000 cells/well and 35,000 cells/well, respectively. On the day of the assay, the medium was removed by suction and the cells were washed with DPBS1 (50 μL). After this step, DPBS1 (180 or 200 μL) containing the nuclear dye Hoechst H33342 (2 μg/mL) was added. This solution also contained the fluorescent ligand (kinetic studies, competition binding experiments), or the fluorescent ligand was added separately (saturation binding experiments). In the case of competition binding experiments, the nonlabeled receptor ligands were also added separately (details given below). All samples were incubated at 23 ± 1 °C in the dark under gentle shaking (incubation times are specified below). The final volume per well was 200 μL. Shortly before subjecting the plate to the plate reader for image acquisition, the liquid was removed by suction and DPBS1 (100 μL) was added. Images were acquired using an IX Micro plate reader (Molecular Devices, Sunnyvale, CA) using a 20× Plan Fluor ELWD objective, a xenon lamp light source and DAPI and TRITC excitation/emission filter cubes for imaging nuclear and fluorescent ligand staining, respectively. […] Two sites/well were measured throughout. Images were analyzed by granularity analysis (2–3 μm diameter granules; MetaXpress 5.3, Molecular Devices, San Diego, CA) and the integrated intensity (pixel intensity × granule area) per cell was used as the raw measurement of fluorescent ligand binding. […]
After the initial washing step, 200 μL of DPBS1 containing the fluorescent ligand 13 or 18 (2.5 nM) and DAPI were added to determine total binding. […] The samples of the different time points were prepared in reversed order (longest incubation time first, shortest incubation time last) so that the cells of all samples could be washed and measured approximately at the same time (note: the measurement time for 60 wells was <5 min). […] Specific binding data, obtained by subtracting triplicate mean values of unspecific binding from triplicate mean values of total binding, were plotted against the time and analyzed by a three-parameter equation describing an exponential rise to a maximum (one-phase association, Y0 constrained to zero, GraphPad Prism 5) to yield the observed association rate constant kobs. […]
After initial washing of the cells, 200 μL of DPBS1 containing the fluorescent ligand 13 or 18 (2.5 nM) and DAPI were added to the wells (determination of total binding). […] The plate was directly subjected to the plate reader (no washing step). […]

NTS1R [3] = molecular target: T1, NTS1R; assay: High-content imaging (HCI) saturation binding, adherent CHO-hNTS1R cells; details: 23 °C
Procedure: as §1, with “In the case of competition binding experiments, the nonlabeled receptor ligands were also added separately (details given below). All samples were incubated at 23 ± 1 °C in the dark under gentle shaking (incubation times are specified below). The final volume per well was 200 μL.” left out

| SMILES | chemical stability in PBS [1] | koff (NTS1R [2]) [s⁻¹] | kon (NTS1R [2]) [M⁻¹ s⁻¹] | Kd (NTS1R [3]) [nM] |
| --- | --- | --- | --- | --- |
| CCC(=O)NCCCCNC(=O)N=C(N)NCCC[C@H](NC(=O)[C@@H]1CCCN1C(=O)[C@@H](NC(=O)CCc1cn(CCCNC(=O)c2ccc(-c3c4ccc(=[N+](C)C)cc-4oc4cc(N(C)C)ccc34)c(C(=O)[O-])c2)nn1)C1CCNCC1)C(=O)N[C@@H](CCCNC(=N)N)C(=O)N1CCC[C@H]1C(=O)N[C@@H](Cc1ccc(O)cc1)C(=O)N[C@H](C(=O)N[C@@H](CC(C)C)C(=O)O)[C@@H](C)CC [Compound 13, N^α-(3-(1-N-((1-Carboxylato-2-(6-(dimethylamino)-3-(dimethyliminio)-3H-xanthen-9-yl)phen-5-yl)1-oxomethyl)aminoprop-3-yl-1H-1,2,3-triazol-4-yl)propanoyl)-2-(piperidin-4-yl)-Gly-Pro-N^ω-[(4-(N-propanoyl)aminobutyl)aminocarbonyl]Arg-Arg-Pro-Tyr-Ile-Leu Tris(hydrotrifluoroacetate)] | high stability; also recorded: very slow degradation observable after 24 h | 0.000733 | 267000 | 1.1 ± 0.2 |
| CCC(=O)NCCCCNC(=O)NC(=N)NCCC[C@H](NC(=O)[C@@H]1CCCN1C(=O)[C@@H](NC(=O)CCc1cn(CCCNC(=O)CCC#Cc2ccc3c(c2)C(C)(C)C2=C4C=C5C6=[N+](CCC5OC4CCN23)c2ccc(S(=O)(=O)[O-])cc2C6(C)C)nn1)C1CCNCC1)C(=O)N[C@@H](CCCNC(=N)N)C(=O)N1CCC[C@H]1C(=O)N[C@H](C(=O)N[C@H](C(=O)N[C@@H](CC(C)C)C(=O)O)[C@@H](C)CC)C(C)(C)c1ccc(O)cc1 (stereo partly drawn) [Compound 18, N^α-(3-(N-(1-(8-Sulfonato-5,5,27,27-tetramethyl-16-oxa-20-aza-12-azoniaheptacyclo[15.11.0.03,15.04,12.06,11.020,28.021,26]octacosa-1(28),2,4(12),6(11),7,9,21(26),22,24-nonaen-24-yl)-5-oxopentyn-5-yl)-1-aminoprop-3-yl-1H-1,2,3-triazol-4-yl)propanoyl)-2-(piperidin-4-yl)-Gly-Pro-N^ω-[(4-(N-propanoyl)aminobutyl)aminocarbonyl]Arg-Arg-Pro-β,β-dimethyl-L-Tyr-Ile-Leu Tris(hydrotrifluoroacetate)] | highly stable over 48 h; also recorded: no decomposition | 0.00085 | 135000 | 1.3 ± 0.3 |
